Row | melting point [°C] | SMILES
1 | 115 to 118 | CCC(CC)Nc1cc(C)nn2c(-c3ccc(Cl)cc3Cl)c(C)cc12 [Example 1, 7-(2,4-dichlorophenyl)-N-(1-ethylpropyl)-2,6-dimethylpyrrolo[1,2-b]pyridazin-4-amine]
2 | 154 to 155 | COCC(COC)Nc1cc(C)nn2c(-c3ccc(Cl)cc3Cl)c(C)cc12 [Example 2, 7-(2,4-dichlorophenyl)-N-[2-methoxy-1-(methoxymethyl)ethyl]-2,6-dimethylpyrrolo[1,2-b]pyridazin-4-amine]

Source: patent publication US7074791B2, “Pyrrolo[1,2-b]pyridazine compounds and their uses” (Pfizer Inc., priority 2002, dated 2006)
